Patent publication US7704957B2, “Composition for inhibiting HIV activity extracted from Paecilomyces sp. (Tochu-kaso) J300” (priority 2001, dated 2010)
Residues, ends and D or L forms follow the SMILES beside them.

Assays:
HIV [1] = assay: Functional mechanism: sample added 30 minutes before or after virus infection; type: cell-based; settings: sample 30 minutes before infection, FIG. 7
Description: To determine whether a material functions or not in the cell, the mixture of cell and sample is incubated for 30 minutes then infected with virus. […] In these case, the samples permeate the membranes of the cell and suppress the propagation of the virus in the cell, as well as the samples attach on the surface of the cell and suppress the introduction of the virus into the cell (FIG. 7)
In addition, after the cell was infected with the virus and incubated for 30 minutes, then the extracts of Tochu-kaso J300 were administered. If the functional site of the active material is out of the cell, the anti-HIV activity would not be detected; on the other hand, if the functional site is in the cell, the activity would be detected. […] This proves that the active material suppresses the propagation of the virus in the cell, even when the sample is administered after a long time after the infection of the cell with virus (FIG. 8).

HIV [2] = assay: Anti-HIV activity: survivability of cells protected from destruction by HIV, XTT method (National Cancer Institute method); type: cell-based; settings: fractions Dong 1-2-1 to 1-2-8
Description: In FIGS. 2 to 8, 11 and 18, the term “Infected” (diamond mark ♦) is for the samples that a reagent is applied after the cells are infected with the virus to observe the protection of cells from the cell destruction of HIV. The term “Uninfected” (square mark □) is for the samples that only reagent is added with different concentration to observe the toxicity of the reagent according to the concentration. Further, X axis represents the concentration of the sample and Y axis represents the survivability of the cells in percentages (%).
In the present invention, the measurement of anti-HIV activity followed the method of National Cancer Institute (U.S.A.). In the method, survivability of cells that are protected from the destruction due to HIV was measured when the cells were treated with the active component of the present invention to determine the anti-HIV activity of the material.
In detail, the mixture of cell+HIV+sample (active compound) was cultured for 1 week, and then cell toxicity was measured by XTT method. […]
In this example, colorimetric assay was adopted to observe the growth and death of the cells, which uses the fact that tetrazole salt (MTT, XTT, WST-1) is broken only in the living cell to form non-soluble formazan structure. By quantitating the amount of the formazane wih ELISA method, the amount of living cell is measured quantitatively. […]

SMILES	activity when sample is added to the cell and virus infected 30 minutes later (HIV [1])	anti-AIDS activity of fractions of Dong 1-2 (HIV [2])
COC(C)C1NC(=O)C(CCC(=O)O)NC1=O (stereo not shown) [Dong 1-2-4, 3-[5-(methoxy-ethyl)-3,6-dioxo-piperazine-2-yl]propionic acid]	showed activity	more intense activity compared to others
CC(C)CC(NC(=O)C1CCCN1)C(=O)O (stereo not drawn) [Dong 1-2-5, 4-methyl-2-[(pyrolidine-2-carbonyl)-2-amino]pentanoic acid] (H-Pro-Leu-OH; configuration not given here)	showed activity	more intense activity compared to others
